The term DC50 denotes the midpoint of the concentration-degradation curve.

For the assay, the target named is T1, catalytic domain of human PARP14 (residues 1611 to 1801) with NanoLuc tag (Homo sapiens, UniProt Q460N5).
T1 construct: expressed in transfected cells; host or cells: HEK-293T cells (ATCC), pcDNA3.1(-) vector
T1 sequence (Q460N5 1611-1801): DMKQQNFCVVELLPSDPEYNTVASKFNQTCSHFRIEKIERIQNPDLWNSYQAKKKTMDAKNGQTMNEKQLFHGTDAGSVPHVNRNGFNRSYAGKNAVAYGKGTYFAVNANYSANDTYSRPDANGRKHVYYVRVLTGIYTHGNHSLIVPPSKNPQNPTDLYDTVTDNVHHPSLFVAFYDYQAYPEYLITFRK
Briefly: NanoLuc assay for the degradation of PARP14 (NanoLuc-tagged PARP14 overexpressed in HEK-293T cells, 2 hours). It counts as cell-based. Particulars: Assay A (Example A): NanoLuc-tagged PARP14 degradation in HEK-293T cells, read-out: DC50. As for the experimental part:
The insert also contained a NanoLuc tag on the N terminus of the PARP14 protein.
Degradation of PARP14 protein was assessed using measurement of the NanoLuc tag as proxy for the PARP14 protein. […] Plasmid DNA was diluted in empty vector DNA then added to 1.163 mL of phenol red free OptiMEM (Thermo Fisher). Plasmid DNA concentrations used in each assay described in Table 1. The plasmid DNA was mixed with 78.5 μL of Fugene HD (Promega) and allowed to incubate 5 minutes.
The transfection was incubated for 24 hrs at 37 degrees in an incubator supplemented with 5% CO2. The cells were then trypsinized and brought up in phenol red free OptiMEM media. […] 40 nL of a dose response curve diluted in DMSO of each test compound was added to the cell plate using a Mosquito (TTP Labtech) and the plate was incubated at 37° C. for 2 hours. Assay plate was brought to room temperature then 20 μL per well of NanoGlo (Promega) was added to the plate. Luminescence was measured on an Envision (Perkin Elmer).
The average DMSO was calculated from 32 wells containing 0.1% DMSO only in columns 12 and 24 of the assay plate. The % of DMSO values were calculated as described below: […]
The % of DMSO values were plotted as a function of compound concentration and the following 4-parameter fit was applied to derive the DC50 values:
where top, bottom, and Hill Coefficient are allowed to float. Y is the % of DMSO and X is the compound concentration
DC50 data for the Example compounds is provided below in Table 2 (“+” is <0.1 μM; “++” is ≥0.1 μM and <1 μM; and “+++” is ≥1 μM).

Some results are limits rather than exact numbers.

Consider `O=C1CC[C@H](Nc2ccc(N3CCN(CCN4CCC(COc5cc(F)c6c(=O)[nH]c(CSC7CCOCC7)nc6c5)CC4)CC3)cc2)C(=O)N1` (single isomer, unassigned) [Example 48a], for which the DC50 was less than 100 nM.
For `O=C1CC[C@@H](Nc2ccc(N3CCN(CCN4CCC(COc5cc(F)c6c(=O)[nH]c(CSC7CCOCC7)nc6c5)CC4)CC3)cc2)C(=O)N1` (single isomer, unassigned) [Example 48b], the DC50 is less than 100 nM.
In the case of `O=C1CCC(N2C(=O)c3cccc(OC4CC(CN5CCC(COc6cc(F)c7c(=O)[nH]c(CSC8CCOCC8)nc7c6)CC5)C4)c3C2=O)C(=O)N1` (single isomer, unassigned) [Example 80a, 2-(2,6-dioxopiperidin-3-yl)-4-((1r,3r)-3-((4-(((5-fluoro-4-oxo-2-(((tetrahydro-2H-pyran-4-yl)thio)methyl)-3,4-dihydroquinazolin-7-yl)oxy)methyl)piperidin-1-yl)methyl)cyclobutoxy)isoindoline-1,3-dione], the DC50 was less than 100 nM.
As to `O=C1CCC(N2C(=O)c3cccc(OC4CC(CN5CCC(COc6cc(F)c7c(=O)[nH]c(CSC8CCOCC8)nc7c6)CC5)C4)c3C2=O)C(=O)N1` (single isomer, unassigned) [Example 80b, 2-(2,6-dioxopiperidin-3-yl)-4-((1s,3s)-3-((4-(((5-fluoro-4-oxo-2-(((tetrahydro-2H-pyran-4-yl)thio)methyl)-3,4-dihydroquinazolin-7-yl)oxy)methyl)piperidin-1-yl)methyl)cyclobutoxy)isoindoline-1,3-dione], the 50% degradation concentration (DC50) was less than 100 nM.
To `O=C(CN1CCC(COc2cc(F)c3c(=O)[nH]c(CSC4CCOCC4)nc3c2)CC1)NCCCCCCNc1cccc2c1C(=O)N(C1CCC(=O)NC1=O)C2=O` (stereo not drawn) [Example 1, N-(6-((2-(2,6-dioxopiperidin-3-yl)-1,3-dioxoisoindolin-4-yl)amino)hexyl)-2-(4-(((5-fluoro-4-oxo-2-(((tetrahydro-2H-pyran-4-yl)thio)methyl)-3,4-dihydroquinazolin-7-yl)oxy)methyl)piperidin-1-yl)acetamide] belongs less than 100 nM.
Turning to `O=C(CN1CCC(COc2cc(F)c3c(=O)[nH]c(CSC4CCOCC4)nc3c2)CC1)NCCNc1cccc2c1C(=O)N(C1CCC(=O)NC1=O)C2=O` (stereo not drawn) [Example 2, N-(2-((2-(2,6-dioxopiperidin-3-yl)-1,3-dioxoisoindolin-4-yl)amino)ethyl)-2-(4-(((5-fluoro-4-oxo-2-(((tetrahydro-2H-pyran-4-yl)thio)methyl)-3,4-dihydroquinazolin-7-yl)oxy)methyl)piperidin-1-yl)acetamide], the 50% degradation concentration (DC50) was less than 100 nM.
With `O=C(CN1CCC(COc2cc(F)c3c(=O)[nH]c(CSC4CCOCC4)nc3c2)CC1)NCCCCCCCCNc1cccc2c1C(=O)N(C1CCC(=O)NC1=O)C2=O` (stereo not drawn) [Example 3, N-(8-((2-(2,6-dioxopiperidin-3-yl)-1,3-dioxoisoindolin-4-yl)amino)octyl)-2-(4-(((5-fluoro-4-oxo-2-(((tetrahydro-2H-pyran-4-yl)thio)methyl)-3,4-dihydroquinazolin-7-yl)oxy)methyl)piperidin-1-yl)acetamide], the DC50 was less than 100 nM.
To `O=C1CCC(N2C(=O)c3cccc(NCCOCCOCCC(=O)N4CCC(COc5cc(F)c6c(=O)[nH]c(CSC7CCOCC7)nc6c5)CC4)c3C2=O)C(=O)N1` (stereo not drawn) [Example 4, 2-(2,6-dioxopiperidin-3-yl)-4-((2-(2-(3-(4-(((5-fluoro-4-oxo-2-(((tetrahydro-2H-pyran-4-yl)thio)methyl)-3,4-dihydroquinazolin-7-yl)oxy)methyl)piperidin-1-yl)-3-oxopropoxy)ethoxy)ethyl)amino)isoindoline-1,3-dione] belongs less than 100 nM; to `O=C1CCC(N2C(=O)c3cccc(NCCC(=O)N4CCC(COc5cc(F)c6c(=O)[nH]c(CSC7CCOCC7)nc6c5)CC4)c3C2=O)C(=O)N1` (stereo not drawn) [Example 5, 2-(2,6-dioxopiperidin-3-yl)-4-((3-(4-(((5-fluoro-4-oxo-2-(((tetrahydro-2H-pyran-4-yl)thio)methyl)-3,4-dihydroquinazolin-7-yl)oxy)methyl)piperidin-1-yl)-3-oxopropyl)amino)isoindoline-1,3-dione], less than 100 nM; to `O=C1CCC(N2C(=O)c3cccc(NCC(=O)N4CCC(COc5cc(F)c6c(=O)[nH]c(CSC7CCOCC7)nc6c5)CC4)c3C2=O)C(=O)N1` (stereo not drawn) [Example 6, 2-(2,6-dioxopiperidin-3-yl)-4-((2-(4-(((5-fluoro-4-oxo-2-(((tetrahydro-2H-pyran-4-yl)thio)methyl)-3,4-dihydroquinazolin-7-yl)oxy)methyl)piperidin-1-yl)-2-oxoethyl)amino)isoindoline-1,3-dione], less than 100 nM.
To `O=C(CN1CCC(COc2cc(F)c3c(=O)[nH]c(CSC4CCOCC4)nc3c2)CC1)NCCOCCOCCNc1cccc2c1C(=O)N(C1CCC(=O)NC1=O)C2=O` (stereo not drawn) [Example 7, N-(2-(2-(2-((2-(2,6-dioxopiperidin-3-yl)-1,3-dioxoisoindolin-4-yl)amino)ethoxy)ethoxy)ethyl)-2-(4-(((5-fluoro-4-oxo-2-(((tetrahydro-2H-pyran-4-yl)thio)methyl)-3,4-dihydroquinazolin-7-yl)oxy)methyl)piperidin-1-yl)acetamide] belongs less than 100 nM.
To `O=C(CN1CCC(COc2cc(F)c3c(=O)[nH]c(CSC4CCOCC4)nc3c2)CC1)NCCCCNc1cccc2c1C(=O)N(C1CCC(=O)NC1=O)C2=O` (stereo not drawn) [Example 8, N-(4-((2-(2,6-dioxopiperidin-3-yl)-1,3-dioxoisoindolin-4-yl)amino)butyl)-2-(4-(((5-fluoro-4-oxo-2-(((tetrahydro-2H-pyran-4-yl)thio)methyl)-3,4-dihydroquinazolin-7-yl)oxy)methyl)piperidin-1-yl)acetamide] belongs less than 100 nM; to `O=C1CCC(N2C(=O)c3cccc(NCCCCCCCCC(=O)N4CCC(COc5cc(F)c6c(=O)[nH]c(CSC7CCOCC7)nc6c5)CC4)c3C2=O)C(=O)N1` (stereo not drawn) [Example 9, 2-(2,6-dioxopiperidin-3-yl)-4-((9-(4-(((5-fluoro-4-oxo-2-(((tetrahydro-2H-pyran-4-yl)thio)methyl)-3,4-dihydroquinazolin-7-yl)oxy)methyl)piperidin-1-yl)-9-oxononyl)amino)isoindoline-1,3-dione], less than 100 nM.
In the case of `O=C1CCC(N2C(=O)c3cccc(NCCCOCCC(=O)N4CCC(COc5cc(F)c6c(=O)[nH]c(CSC7CCOCC7)nc6c5)CC4)c3C2=O)C(=O)N1` (stereo not drawn) [Example 10, 2-(2,6-dioxopiperidin-3-yl)-4-((3-(3-(4-(((5-fluoro-4-oxo-2-(((tetrahydro-2H-pyran-4-yl)thio)methyl)-3,4-dihydroquinazolin-7-yl)oxy)methyl)piperidin-1-yl)-3-oxopropoxy)propyl)amino)isoindoline-1,3-dione], the DC50 was less than 100 nM.
For the compound `O=C1CCC(N2C(=O)c3cccc(NCCCCCCC(=O)N4CCC(COc5cc(F)c6c(=O)[nH]c(CSC7CCOCC7)nc6c5)CC4)c3C2=O)C(=O)N1` (stereo not drawn) [Example 11, 2-(2,6-dioxopiperidin-3-yl)-4-((7-(4-(((5-fluoro-4-oxo-2-(((tetrahydro-2H-pyran-4-yl)thio)methyl)-3,4-dihydroquinazolin-7-yl)oxy)methyl)piperidin-1-yl)-7-oxoheptyl)amino)isoindoline-1,3-dione], the 50% degradation concentration (DC50) is less than 100 nM.
